In paper PMC8234218, “In Vitro and In Vivo Efficacies of the Linear and the Cyclic Version of an All-D-Enantiomeric Peptide Developed for the Treatment of Alzheimer’s Disease” (International Journal of Molecular Sciences, 2021):
Read-outs that look alike come from different tables or passages of the source. Where a SMILES comes first, the peptide text is derived from it. [ ]: non-standard residue; d: D form.

Columns and labels:
[1] = cited from earlier work
From the text: Our society is aging and, with it, the number of diseases of old age, especially dementias, are increasing. Alzheimer’s disease (AD) is a devastating neurodegenerative disorder and the most common form of dementia worldwide. Its clinical symptoms are considered to be disturbances of memory, language, spatial and temporal orientation and cognitive decline. The pathological hallmarks of the disease are characterized by neurodegeneration, intracellular depositions of neurofibrillary tangles and extracellular accumulations of amyloid-β (Aβ) plaques.

[2] = Proteolytic stability in simulated gastric fluid (SGF); assay type: in vitro ADME
Procedure: (§1) Both compounds have already been extensively studied with respect to their in vivo pharmacokinetic profiles. Here, we performed some additional test to investigate the proteolytic stability of the compounds in simulated gastric (SGF) and intestinal fluid (SIF) and human plasma and human liver microsomes. The experiments were performed as described previously. According to the guidelines of the European Pharmacopoeia 7.0, SGF and SIF were prepared. Plasma was purchased from Biotrend with K3-EDTA as an anticoagulant (Biotrend, Köln, Germany). Human liver microsomes were pooled from different donors and purchased from Sekisui XenoTech (Kansas City, KS, USA). In order to determine whether the compounds RD2D3 and cRD2D3 are stable or would be metabolized, 150 µM of each compound was incubated in triplicate for defined time points slightly shaking at 37 °C in the media described above (SGF and SIF: 4 and 8 h, plasma: 8, 24 and 48 h and microsomes: 8 and 24 h). Incubation was stopped by precipitating the proteins. For this, 3% trichloroacetic acid (w/v) was added to the respective sample under vortexing followed by a centrifugation step (14,000× g at 4 °C for 5 min). For analysis, supernatants containing the compounds were collected. The precipitated media without compound was used as a control and as reference for the quantification served each medium with compound where the reaction was stopped immediately by precipitating the proteins. All samples were analyzed by RP-HPLC as previously described.

[3] = Proteolytic stability in human liver microsomes; assay type: in vitro ADME
Procedure: as §1

[4] = target: T1, D/I Aβ-oligomers (Homo sapiens, UniProt P05067, D694N/E693Q); test: QIAD assay, D/I Aβ oligomer elimination; assay type: biochemical; conditions: 40 µM D/I Aβ preincubated 15 min, 10 µM D-peptide, 30 min coincubation, density gradient fractions 4-6, RP-HPLC UV 214 nm, N = 2-5
T1 construct: (Gln^22, Asn^23)-Amyloid β-Protein (1-40) (D/I Aβ); purchased Bachem (Bubendorf, Switzerland); host or cells: chemical synthesis
Procedure: According to Brener et al., a QIAD assay was performed in order to evaluate the Aβ(1-42) or D/I Aβ oligomer elimination efficacies of RD2D3 and cRD2D3 [18]. In short, 80 µM lyophilized Aβ(1-42) or 40 µM D/I Aβ was preincubated for 2 h or 15 min, respectively, to enrich Aβ-oligomers. Afterwards, either 20 µM RD2D3 or cRD2D3 for Aβ(1-42) or 10 µM RD2D3 or cRD2D3 for D/I Aβ were added to the preincubated solution and coincubated for additional 30 min. Subsequently, the samples were loaded on the top of a density gradient (5–50% (w/v) iodixanol (OptiPrep, Sigma-Aldrich, Darmstadt, Germany)) followed by an ultracentrifugation step (3 h at 4 °C and 259000× g (Optima TL-100, Beckman Coulter, Brea, CA, USA)). Following the ultracentrifugation, 14 fractions (140 µL each) were harvested by upward displacement. Fraction 15 contains the dissolved pellet in 6 M guanidine hydrochloride solution. Top fractions 1–2 contained Aβ-monomers, fractions 4–6 contained the Aβ-oligomers, which are of special interest, and the bottom fractions 11–14 contained high molecular weight (co-)precipitates or aggregated Aβ. Aβ(1-42) or D/I Aβ concentrations of each fraction were determined via analytical RP-HPLC and UV absorbance detection at 214 nm.

[5] = Proteolytic stability in human plasma; assay type: in vitro ADME
Procedure: as §1

[6] = target: T2, Aβ(1-42) (Homo sapiens, UniProt P05067); test: SPR, D-peptide immobilized, Aβ(1-42) monomers as analyte; assay type: binding; conditions: D-peptide immobilized on series S CM-5 chip, Aβ(1-42) monomers analyte 0.0045-10 µM, 10 mM HEPES + 50 mM NaCl pH 7.4, 25 °C, steady-state Langmuir 1:1 fit (Fig. 1g), read-out: KD Aβ(1-42), D-peptide as ligand
T2 construct: Synthetic Aβ(1-42) and (Gln^22, Asn^23)-Amyloid β-Protein (1-40) (D/I Aβ) with >95% purity were purchased; purchased Bachem (Bubendorf, Switzerland); host or cells: chemical synthesis
Procedure: The dissociation constant (KD) of RD2D3 and cRD2D3 binding to Aβ(1-42) and D/I Aβ was determined by SPR spectroscopy using a Biacore T200 instrument (Biacore, GE Healthcare, Uppsala, Sweden). Aβ(1-42) or D/I Aβ was used as the ligand, while RD2D3 and cRD2D3 were used as the analyte or vice versa.
By using the compounds (RD2D3 and cRD2D3) as ligands, they were immobilized on two separate channels on a series S CM-5 sensor chip (Cytiva, GE Healthcare, Uppsala, Sweden) by amine coupling. Both flow cells on each channel were activated with a mixture of 50 mM N-hydroxysuccinimide (NHS) and 16.1 mM N-ethyl-N’-(dimethylaminopropyl)carbodiimide (EDC) (XanTec, Düsseldorf, Germany) for 7 min. The peptides were diluted to 50 µg/mL in 10 mM maleic acid pH 6 (AppliChem, Darmstadt, Germany) and injected over flow cell two of each channel to a final signal between 600 and 900 RU. After the peptides were immobilized, the ligand and reference flow cells of each channel were quenched by injecting 1 M ethanolamine pH 8.5 (XanTec, Düsseldorf, Germany) for 7 min. […] Aβ(1-42) or D/I Aβ were diluted in the running buffer to the following concentrations: 10 µM, 3.3 µM, 1.1 µM, 0.37 µM, 0.12 µM, […], 0.014 µM and 0.0045 µM. All samples were injected over the flow cells for 180 s, followed by a dissociation step of 600 s with running buffer. […]

In the case of `CC(C)C[C@@H](NC(=O)[C@@H](CCCNC(=N)N)NC(=O)[C@H](NC(=O)[C@@H](CCCNC(=N)N)NC(=O)[C@H]1CCCN1C(=O)[C@@H](CCCNC(=N)N)NC(=O)[C@@H](CCCNC(=N)N)NC(=O)[C@@H](CCCNC(=N)N)NC(=O)[C@@H](CCCNC(=N)N)NC(=O)[C@@H](CCCNC(=N)N)NC(=O)[C@@H](CCCNC(=N)N)NC(=O)[C@@H](CC(N)=O)NC(=O)[C@@H](Cc1c[nH]cn1)NC(=O)[C@H](NC(=O)[C@@H](Cc1c[nH]cn1)NC(=O)[C@@H](CC(C)C)NC(=O)[C@H](NC(=O)[C@H]1CCCN1)[C@H](C)O)[C@H](C)O)[C@H](C)O)C(=O)N[C@H](Cc1c[nH]cn1)C(=O)N[C@@H](C(=O)N[C@H](Cc1c[nH]cn1)C(=O)N[C@H](CCCNC(=N)N)C(=O)N[C@H](CC(N)=O)C(=O)N[C@H](CCCNC(=N)N)C(N)=O)[C@H](C)O` [RD2D3] (H-[dP][dT][dL][dH][dT][dH][dN][dR][dR][dR][dR][dR][dR][dP][dR][dT][dR][dL][dH][dT][dH][dR][dN][dR]-NH2), the “Terminal half-life (in plasma)” value ([1]; mouse, in vivo) is listed as 2.3 h, the remaining at 4 h, 150 µM ([2]; simulated gastric fluid) is listed as 100% and the remaining at 8 h, 150 µM ([2]; simulated gastric fluid) is listed as 100%. For the same molecule, the remaining at 8 h, 150 µM ([3]; human, microsomes) was 81.9%, the remaining at 24 h, 150 µM ([3]; human, microsomes) was 78.2% and the “Elimination of toxic D/I Aβ-oligomers (QIAD)” value [4] was 94%. The remaining at 8 h, 150 µM ([5]; human, plasma) was 84.7%, the remaining at 24 h, 150 µM ([5]; human, plasma) was 91.9% and the remaining at 48 h, 150 µM ([5]; human, plasma) was 93.7%. For the same molecule, the Kd [6] was 18.4 ± 6.5 µM.

In the case of `CC(C)C[C@H]1NC(=O)[C@@H](CCCNC(=N)N)NC(=O)[C@@H]([C@H](C)O)NC(=O)[C@@H](CCCNC(=N)N)NC(=O)[C@H]2CCCN2C(=O)[C@@H](CCCNC(=N)N)NC(=O)[C@@H](CCCNC(=N)N)NC(=O)[C@@H](CCCNC(=N)N)NC(=O)[C@@H](CCCNC(=N)N)NC(=O)[C@@H](CCCNC(=N)N)NC(=O)[C@@H](CCCNC(=N)N)NC(=O)[C@@H](CC(N)=O)NC(=O)[C@@H](Cc2c[nH]cn2)NC(=O)[C@@H]([C@H](C)O)NC(=O)[C@@H](Cc2c[nH]cn2)NC(=O)[C@@H](CC(C)C)NC(=O)[C@@H]([C@H](C)O)NC(=O)[C@H]2CCCN2C(=O)[C@@H](CCCNC(=N)N)NC(=O)[C@@H](CC(N)=O)NC(=O)[C@@H](CCCNC(=N)N)NC(=O)[C@@H](Cc2c[nH]cn2)NC(=O)[C@@H]([C@H](C)O)NC(=O)[C@@H](Cc2c[nH]cn2)NC1=O` [cRD2D3] (cyclo([dH][dN][dR][dR][dR][dR][dR][dR][dP][dR][dT][dR][dL][dH][dT][dH][dR][dN][dR][dP][dT][dL][dH][dT])), the “Brain concentrations relative to RD2D3” value ([1]; C57BL/6 mice, i.v. and i.p. administration) is listed as “four to five times higher”, the “Terminal half-life (in plasma)” value ([1]; C57Bl/6 wild type mice, after i.v. and i.p. administration, ref 17 (b3)) is listed as 58 h and the Oral bioavailability [1] is listed as “high oral bioavailability”. The remaining at 4 h, 150 µM ([2]; simulated gastric fluid (SGF), simulated gastric fluid (Eur. Pharmacopoeia 7.0), 150 µM, 37 °C, 4 h, TCA precipitation, RP-HPLC, referenced to immediately stopped sample, mean of three independent experiments, read-out: Stability in SGF, 4 h) was 99.5%, the remaining at 8 h, 150 µM ([2]; simulated gastric fluid (SGF), simulated gastric fluid (Eur. Pharmacopoeia 7.0), 150 µM, 37 °C, 8 h, TCA precipitation, RP-HPLC, referenced to immediately stopped sample, mean of three independent experiments, read-out: Stability in SGF, 8 h) was 99.7% and the remaining at 8 h, 150 µM ([3]; pooled human liver microsomes, 150 µM, 37 °C, 8 h, TCA precipitation, RP-HPLC, mean of three independent experiments, read-out: Stability in human liver microsomes, 8 h) was 89.2%. The remaining at 24 h, 150 µM ([3]; pooled human liver microsomes, 150 µM, 37 °C, 24 h, TCA precipitation, RP-HPLC, mean of three independent experiments, read-out: Stability in human liver microsomes, 24 h) was 73.6%, the “Elimination of toxic D/I Aβ-oligomers (QIAD)” value [4] was 100% and the remaining at 8 h, 150 µM ([5]; human plasma (K3-EDTA), 150 µM, 37 °C, 8 h, TCA precipitation, RP-HPLC, mean of three independent experiments, read-out: Stability in human plasma, 8 h) was 91.8%. For the same molecule, the remaining at 24 h, 150 µM ([5]; human plasma (K3-EDTA), 150 µM, 37 °C, 24 h, TCA precipitation, RP-HPLC, mean of three independent experiments, read-out: Stability in human plasma, 24 h) was 93.7%, the remaining at 48 h, 150 µM ([5]; human plasma (K3-EDTA), 150 µM, 37 °C, 48 h, TCA precipitation, RP-HPLC, mean of three independent experiments, read-out: Stability in human plasma, 48 h) was 92.4% and the Kd [6] was 5.63 ± 2.5 µM.
